# Laboratory results: PubChem BioAssay (NCI)
#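 Where inhibition never reached the appropriate level, the endpoint shown equals the highest concentration tested. Otherwise, values were interpolated linearly from a five-concentration, 48-hour dose response in 96-well plates. At the GI50, growth is halved. At the TGI there is no net growth.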
# Experiments:
# Assay in all cases: NCI-60 cell line screen, 48 h
# [1] = test system: 786-0 renal
# [2] = test system: A498 renal
# [3] = test system: A549 NSCLC
# [4] = test system: ACHN renal
# [5] = test system: BT-549 breast
# [6] = test system: CAKI-1 renal
# [7] = test system: CCRF-CEM leukemia
# [8] = test system: COLO 205 colon
# [9] = test system: DU-145 prostate
# [10] = test system: EKVX NSCLC
# [11] = test system: HCC-2998 colon
# [12] = test system: HCT-116 colon
# [13] = test system: HCT-15 colon
# [14] = test system: HL-60(TB) leukemia
# [15] = test system: HOP-62 NSCLC
# [16] = test system: HOP-92 NSCLC
# [17] = test system: HS 578T breast
# [18] = test system: HT29 colon
# [19] = test system: IGROV1 ovarian
# [20] = test system: K-562 leukemia
# [21] = test system: KM12 colon
# [22] = test system: LOX IMVI melanoma
# [23] = test system: M14 melanoma
# [24] = test system: MALME-3M melanoma
# [25] = test system: MCF7 breast
# [26] = test system: MDA-MB-231 breast
# [27] = test system: MDA-MB-435
# [28] = test system: MDA-MB-468 breast
# [29] = test system: MOLT-4 leukemia
# [30] = test system: NCI-H226 lung
# [31] = test system: NCI-H23 lung
# [32] = test system: NCI-H460 lung
# [33] = test system: NCI-H522 lung
# [34] = test system: NCI/ADR-RES ovarian
# [35] = test system: OVCAR-3 ovarian
# [36] = test system: OVCAR-4 ovarian
# [37] = test system: OVCAR-5 ovarian
# [38] = test system: OVCAR-8 ovarian
# [39] = test system: PC-3 prostate
# [40] = test system: RPMI-8226 leukemia
# [41] = test system: RXF 393 renal
# [42] = test system: SF-268 CNS
# [43] = test system: SF-295 CNS
# [44] = test system: SF-539 CNS
# [45] = test system: SK-MEL-2 melanoma
# [46] = test system: SK-MEL-28 melanoma
# [47] = test system: SK-MEL-5 melanoma
# [48] = test system: SK-OV-3 ovarian
# [49] = test system: SN12C renal
# [50] = test system: SNB-19 CNS
# [51] = test system: SNB-75 CNS
# [52] = test system: SR leukemia
# [53] = test system: SW-620 colon
# [54] = test system: T-47D breast
# [55] = test system: TK-10 renal
# [56] = test system: U251 CNS
# [57] = test system: UACC-257 melanoma
# [58] = test system: UACC-62 melanoma
# [59] = test system: UO-31 renal
compound,measurement,setting,value
COc1cc2c(c(OC)c1OC)C(=O)CC(c1cccc(NC(=O)c3cccc([N+](=O)[O-])c3)c1)O2 (stereo not drawn),GI50,[1],47.9 µM
same,TGI,[1],> 100 µM
same,GI50,[2],67.4 µM
same,TGI,[2],> 100 µM
same,GI50,[3],21.7 µM
same,TGI,[3],> 100 µM
same,GI50,[4],21.5 µM
same,TGI,[4],> 100 µM
same,GI50,[5],5 µM
same,TGI,[5],57.7 µM
same,GI50,[6],6.66 µM
same,TGI,[6],> 100 µM
same,GI50,[7],3.44 µM
same,TGI,[7],> 100 µM
same,GI50,[8],28 µM
same,TGI,[8],> 100 µM
same,GI50,[9],21.5 µM
same,TGI,[9],> 100 µM
same,GI50,[10],> 100 µM
same,TGI,[10],> 100 µM
same,GI50,[11],55.1 µM
same,TGI,[11],> 100 µM
same,GI50,[12],9.24 µM
same,TGI,[12],> 100 µM
same,GI50,[13],6.57 µM
same,TGI,[13],> 100 µM
same,GI50,[14],3.84 µM
same,TGI,[14],29.1 µM
same,GI50,[15],98.7 µM
same,TGI,[15],> 100 µM
same,GI50,[16],4.29 µM
same,TGI,[16],> 100 µM
same,GI50,[17],7.29 µM
same,TGI,[17],> 100 µM
same,GI50,[18],26.8 µM
same,TGI,[18],> 100 µM
same,GI50,[19],18.6 µM
same,TGI,[19],> 100 µM
same,GI50,[20],6.03 µM
same,TGI,[20],> 100 µM
same,GI50,[21],3.39 µM
same,TGI,[21],> 100 µM
same,GI50,[22],13.9 µM
same,TGI,[22],> 100 µM
same,GI50,[23],19.2 µM
same,TGI,[23],> 100 µM
same,GI50,[24],10.1 µM
same,TGI,[24],> 100 µM
same,GI50,[25],6.99 µM
same,TGI,[25],> 100 µM
same,GI50,[26],18.8 µM
same,TGI,[26],> 100 µM
same,GI50,[27],4.3 µM
same,TGI,[27],21.5 µM
same,GI50,[28],2.07 µM
same,TGI,[28],8.94 µM
same,GI50,[29],3.93 µM
same,TGI,[29],> 100 µM
same,GI50,[30],5.77 µM
same,TGI,[30],> 100 µM
same,GI50,[31],32.8 µM
same,TGI,[31],> 100 µM
same,GI50,[32],17.2 µM
same,TGI,[32],> 100 µM
same,GI50,[33],4.65 µM
same,TGI,[33],49.8 µM
same,GI50,[34],4.88 µM
same,TGI,[34],> 100 µM
same,GI50,[35],9.49 µM
same,TGI,[35],> 100 µM
same,GI50,[36],7.98 µM
same,TGI,[36],> 100 µM
same,GI50,[37],74.6 µM
same,TGI,[37],> 100 µM
same,GI50,[38],4.62 µM
same,TGI,[38],> 100 µM
same,GI50,[39],4.66 µM
same,TGI,[39],> 100 µM
same,GI50,[40],3.24 µM
same,TGI,[40],48.6 µM
same,GI50,[41],3.62 µM
same,TGI,[41],> 100 µM
same,GI50,[42],18.5 µM
same,TGI,[42],> 100 µM
same,GI50,[43],18.7 µM
same,TGI,[43],> 100 µM
same,GI50,[44],29.3 µM
same,TGI,[44],> 100 µM
same,GI50,[45],7.49 µM
same,TGI,[45],48.8 µM
same,GI50,[46],35.2 µM
same,TGI,[46],> 100 µM
same,GI50,[47],6.3 µM
same,TGI,[47],46.7 µM
same,GI50,[48],> 100 µM
same,TGI,[48],> 100 µM
same,GI50,[49],11.2 µM
same,TGI,[49],> 100 µM
same,GI50,[50],36.9 µM
same,TGI,[50],> 100 µM
same,GI50,[51],7.73 µM
same,TGI,[51],> 100 µM
same,GI50,[52],3.15 µM
same,TGI,[52],> 100 µM
same,GI50,[53],10.9 µM
same,TGI,[53],> 100 µM
same,GI50,[54],3.74 µM
same,TGI,[54],> 100 µM
same,GI50,[55],51.6 µM
same,TGI,[55],> 100 µM
same,GI50,[56],20.1 µM
same,TGI,[56],> 100 µM
same,GI50,[57],19.5 µM
same,TGI,[57],> 100 µM
same,GI50,[58],4.07 µM
same,TGI,[58],65.4 µM
same,GI50,[59],4.79 µM
same,TGI,[59],> 100 µM
CS(=O)(=O)Nc1ccc(-c2ccc3c(c2)ncn3-c2ccc(NC(=O)Nc3ccc(Cl)c(C(F)(F)F)c3)cc2)cc1,GI50,[1],1.87 µM
same,TGI,[1],4.42 µM
same,GI50,[2],2.42 µM
same,TGI,[2],7.41 µM
same,GI50,[3],3 µM
same,TGI,[3],10.8 µM
same,GI50,[4],2.72 µM
same,TGI,[4],9.66 µM
same,GI50,[5],2.99 µM
same,TGI,[5],7.17 µM
same,GI50,[6],4.73 µM
same,TGI,[6],20.9 µM
same,GI50,[7],2.72 µM
same,TGI,[7],8.84 µM
same,GI50,[8],2.05 µM
same,TGI,[8],5.15 µM
same,GI50,[9],3.84 µM
same,TGI,[9],17.1 µM
same,GI50,[10],2.89 µM
same,TGI,[10],10.2 µM
same,GI50,[11],4.32 µM
same,TGI,[11],14.7 µM
same,GI50,[12],2.9 µM
same,TGI,[12],9.97 µM
same,GI50,[13],2.73 µM
same,TGI,[13],10.1 µM
same,GI50,[14],1.79 µM
same,TGI,[14],4.02 µM
same,GI50,[15],2.06 µM
same,TGI,[15],4.96 µM
same,GI50,[16],3.41 µM
same,TGI,[16],8.67 µM
same,GI50,[17],2.14 µM
same,TGI,[17],6.46 µM
same,GI50,[18],2.95 µM
same,TGI,[18],10.8 µM
same,GI50,[19],3.24 µM
same,TGI,[19],11.5 µM
same,GI50,[20],1.95 µM
same,TGI,[20],5.48 µM
same,GI50,[21],0.38 µM
same,TGI,[21],9.59 µM
same,GI50,[22],2.63 µM
same,TGI,[22],7.31 µM
same,GI50,[23],2.38 µM
same,TGI,[23],9.11 µM
same,GI50,[24],2.1 µM
same,TGI,[24],5.58 µM
same,GI50,[25],1.86 µM
same,TGI,[25],5.04 µM
same,GI50,[27],2.97 µM
same,TGI,[27],12.4 µM
same,GI50,[28],2.43 µM
same,TGI,[28],7.78 µM
same,GI50,[29],1.72 µM
same,TGI,[29],5.05 µM
same,GI50,[30],3.05 µM
same,TGI,[30],11.8 µM
same,GI50,[31],2.42 µM
same,TGI,[31],7.92 µM
same,GI50,[32],2.64 µM
same,TGI,[32],9.49 µM
same,GI50,[33],2.33 µM
same,TGI,[33],8.12 µM
same,GI50,[34],5.19 µM
same,TGI,[34],24.8 µM
same,GI50,[35],3.17 µM
same,TGI,[35],10.6 µM
same,GI50,[36],4.05 µM
same,TGI,[36],21.1 µM
same,GI50,[37],3.03 µM
same,TGI,[37],11.1 µM
same,GI50,[38],2.38 µM
same,TGI,[38],6.87 µM
same,GI50,[39],2.81 µM
same,TGI,[39],10.3 µM
same,GI50,[40],1.9 µM
same,TGI,[40],5.16 µM
same,GI50,[41],1.05 µM
same,TGI,[41],3.83 µM
same,GI50,[42],3.42 µM
same,TGI,[42],15.4 µM
same,GI50,[43],1.54 µM
same,TGI,[43],3.21 µM
same,GI50,[44],1.56 µM
same,TGI,[44],6.52 µM
same,GI50,[46],2.53 µM
same,TGI,[46],10.3 µM
same,GI50,[47],1.85 µM
same,TGI,[47],3.87 µM
same,GI50,[48],2.84 µM
same,TGI,[48],9.55 µM
same,GI50,[49],2.99 µM
same,TGI,[49],11.2 µM
same,GI50,[50],3.23 µM
same,TGI,[50],12 µM
same,GI50,[52],1.61 µM
same,TGI,[52],3.71 µM
same,GI50,[53],2.97 µM
same,TGI,[53],12.8 µM
same,GI50,[54],2.69 µM
same,TGI,[54],12.2 µM
same,GI50,[55],3.83 µM
same,TGI,[55],13.5 µM
same,GI50,[56],2.49 µM
same,TGI,[56],10.8 µM
same,GI50,[57],2.43 µM
same,TGI,[57],6.85 µM
same,GI50,[58],1.91 µM
same,TGI,[58],4.23 µM
